Molecules are shown by their SMILES.

For the assay, the target named is Plk1 (Homo sapiens, UniProt P53350). The experiment in a line: biochemical.
Sequence of Plk1 (P53350 20-338): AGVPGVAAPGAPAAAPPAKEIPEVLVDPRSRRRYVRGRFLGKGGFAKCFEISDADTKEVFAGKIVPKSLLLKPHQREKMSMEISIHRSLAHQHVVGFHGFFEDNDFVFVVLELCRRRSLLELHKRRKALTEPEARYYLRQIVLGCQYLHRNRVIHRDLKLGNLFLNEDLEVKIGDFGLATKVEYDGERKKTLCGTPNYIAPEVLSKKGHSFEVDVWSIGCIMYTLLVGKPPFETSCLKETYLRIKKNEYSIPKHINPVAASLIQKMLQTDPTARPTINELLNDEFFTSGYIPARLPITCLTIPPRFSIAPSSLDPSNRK
In general, Ki refers to the equilibrium dissociation constant of an inhibitor or competing ligand from its target. A low value points to a stronger hold on the target. `CN1C(=O)C(C)(C)CN(C2CCCC2)c2nc(Nc3cccc(N4CCCC4=O)c3)ncc21` [Compound I-149, 2-(3-(2-oxopyrrolidin-1-yl)phenylamino)-9-cyclopentyl-8,9-dihydro-5,7,7-trimethyl-5H-pyrimido[4,5-b][1,4]diazepin-6(7H)-one] registered a Ki of 10 to 100 nM. In turn, `CN1C(=O)C(C)(C)CN(C2CCCC2)c2nc(Nc3cccc(NS(C)(=O)=O)c3)ncc21` [Compound I-150, N-[3-(9-cyclopentyl-5,7,7-trimethyl-6-oxo-6,7,8,9-tetrahydro-5H-pyrimido[4,5-b][1,4]diazepin-2-ylamino)-phenyl]-methanesulfonamide] gave a Ki of 10 to 100 nM. On to `CN1C(=O)C(C)(C)CN(C2CCCC2)c2nc(Nc3cccc(NC(=O)C4CCC4)c3)ncc21` [Compound I-151, N-(3-(9-cyclopentyl-6,7,8,9-tetrahydro-5,7,7-trimethyl-6-oxo-5H-pyrimido[4,5-b][1,4]diazepin-2-ylamino)phenyl)cyclobutanecarboxamide], for which the Ki fell in the range of 10 to 100 nM.

`CN1C(=O)C(C)(C)CN(C2CCCC2)c2nc(Nc3cccc(C(=O)N4CC(F)(C5CC5)C4)c3)ncc21` [Compound I-152, 9-Cyclopentyl-2-[3-(3-cyclopropyl-3-fluoro-azetidine-1-carbonyl)-phenylamino]-5,7,7-trimethyl-5,7,8,9-tetrahydro-pyrimido[4,5-b][1,4]diazepin-6-one] had an inhibition constant Ki of 10 to 100 nM. The figure for `CN1C(=O)C(C)(C)CN(C2CCCC2)c2nc(Nc3cccc(-c4cccnc4)c3)ncc21` [Compound I-153, 2-(3-(pyridin-3-yl)phenylamino)-9-cyclopentyl-8,9-dihydro-5,7,7-trimethyl-5H-pyrimido[4,5-b][1,4]diazepin-6(7H)-one] is 10 to 100 nM; for `CN1C(=O)C(C)(C)CN(C2CCCC2)c2nc(Nc3cccc(NC(=O)c4ccccc4)c3)ncc21` [Compound I-154, N-(3-(9-cyclopentyl-6,7,8,9-tetrahydro-5,7,7-trimethyl-6-oxo-5H-pyrimido[4,5-b][1,4]diazepin-2-ylamino)phenyl)benzamide] it is 10 to 100 nM. In turn, `COC(=O)Nc1cccc(Nc2ncc3c(n2)N(C2CCCC2)CC(C)(C)C(=O)N3C)c1` [Compound I-155] yielded a Ki of 10 to 100 nM.

With `CN1C(=O)C(C)(C)CN(C2CCCC2)c2nc(Nc3cccc(C(=O)NC4CNC4)c3)ncc21` [Compound I-156, 3-(9-cyclopentyl-6,7,8,9-tetrahydro-5,7,7-trimethyl-6-oxo-5H-pyrimido[4,5-b][1,4]diazepin-2-ylamino)-N-(azetidin-3-yl)benzamide], the Ki is 10 to 100 nM. The figure for `CN1CCC(C(=O)Nc2cccc(Nc3ncc4c(n3)N(C3CCCC3)CC(C)(C)C(=O)N4C)c2)CC1` [Compound I-157, N-(3-(9-cyclopentyl-6,7,8,9-tetrahydro-5,7,7-trimethyl-6-oxo-5H-pyrimido[4,5-b][1,4]diazepin-2-ylamino)phenyl)-1-methylpiperidine-4-carboxamide] is below 10 nM. To `COc1ccc(NC(C)=O)cc1Nc1ncc2c(n1)N(C1CCCC1)CC(C)(C)C(=O)N2C` [Compound I-158, N-(3-(9-cyclopentyl-6,7,8,9-tetrahydro-5,7,7-trimethyl-6-oxo-5H-pyrimido[4,5-b][1,4]diazepin-2-ylamino)-4-methoxyphenyl)acetamide] belongs below 10 nM.

The compound `CN1C(=O)C(C)(C)CN(C2CCCC2)c2nc(Nc3cccc(C(=O)NC4CC4)c3)ncc21` [Compound I-159, 3-(9-cyclopentyl-6,7,8,9-tetrahydro-5,7,7-trimethyl-6-oxo-5H-pyrimido[4,5-b][1,4]diazepin-2-ylamino)-N-cyclopropylbenzamide] returned a Ki of 10 to 100 nM. `CNC(=O)c1ccc(Nc2ncc3c(n2)N(CC(F)(F)C(F)(F)F)CC(C)(C)C(=O)N3C)c(OC)c1` [Compound I-160, 4-(9-(2,2,3,3,3-pentafluoropropyl)-6,7,8,9-tetrahydro-5,7,7-trimethyl-6-oxo-5H-pyrimido[4,5-b][1,4]diazepin-2-ylamino)-3-methoxy-N-methylbenzamide] gave a Ki of 10 to 100 nM. `CNC(=O)c1ccc(Nc2ncc3c(n2)N(c2cccc(Cl)c2)CC(C)(C)C(=O)N3C)c(OC)c1` [Compound I-161, 4-(9-(3-chlorophenyl)-6,7,8,9-tetrahydro-5,7,7-trimethyl-6-oxo-5H-pyrimido[4,5-b][1,4]diazepin-2-ylamino)-3-methoxy-N-methylbenzamide] gave a Ki of 10 to 100 nM.

The compound `CC(=O)Nc1cc(Nc2ncc3c(n2)N(C2CCCC2)CC(C)(C)C(=O)N3C)ccc1C` [Compound I-162, N-(5-(9-cyclopentyl-6,7,8,9-tetrahydro-5,7,7-trimethyl-6-oxo-5H-pyrimido[4,5-b][1,4]diazepin-2-ylamino)-2-methylphenyl)acetamide] registered a Ki of 10 to 100 nM. To `CC(=O)Nc1ccc(C)c(Nc2ncc3c(n2)N(C2CCCC2)CC(C)(C)C(=O)N3C)c1` [Compound I-163, N-(3-(9-cyclopentyl-6,7,8,9-tetrahydro-5,7,7-trimethyl-6-oxo-5H-pyrimido[4,5-b][1,4]diazepin-2-ylamino)-4-methylphenyl)acetamide] belongs below 10 nM; to `CN1C(=O)C(C)(C)CN(C2CCCC2)c2nc(Nc3cccc(NC(=O)N4CCCCC4)c3)ncc21` [Compound I-164, N-(3-(9-cyclopentyl-6,7,8,9-tetrahydro-5,7,7-trimethyl-6-oxo-5H-pyrimido[4,5-b][1,4]diazepin-2-ylamino)phenyl)piperidine-1-carboxamide], 10 to 100 nM. `CC(=O)Nc1c(F)ccc(Nc2ncc3c(n2)N(C2CCCC2)CC(C)(C)C(=O)N3C)c1F` [Compound I-165, N-(3-(9-cyclopentyl-6,7,8,9-tetrahydro-5,7,7-trimethyl-6-oxo-5H-pyrimido[4,5-b][1,4]diazepin-2-ylamino)-2,6-difluorophenyl)acetamide] yielded a Ki of 10 to 100 nM.

`COc1cc(C(=O)NC2CC(F)(F)C2)ccc1Nc1ncc2c(n1)N(C1CCCC1)CC(C)(C)C(=O)N2C` [Compound I-166, 4-(9-cyclopentyl-6,7,8,9-tetrahydro-5,7,7-trimethyl-6-oxo-5H-pyrimido[4,5-b][1,4]diazepin-2-ylamino)-N-(3,3-difluorocyclobutyl)-3-methoxybenzamide] yielded a Ki below 10 nM.

Consider `CNC(=O)c1ccc(Nc2ncc3c(n2)N(C2CCC2)CC(C)(C)C(=O)N3C)c(OC)c1` [Compound I-167, 4-(9-cyclobutyl-6,7,8,9-tetrahydro-5,7,7-trimethyl-6-oxo-5H-pyrimido[4,5-b][1,4]diazepin-2-ylamino)-3-methoxy-N-methylbenzamide], for which the Ki is below 10 nM. As to `CNC(=O)c1ccc(Nc2ncc3c(n2)N(CC(C)(C)C)CC(C)(C)C(=O)N3C)c(OC)c1` [Compound I-168, 4-(6,7,8,9-tetrahydro-5,7,7-trimethyl-9-neopentyl-6-oxo-5H-pyrimido[4,5-b][1,4]diazepin-2-ylamino)-3-methoxy-N-methylbenzamide], the Ki fell in the range of 10 to 100 nM. To `CNC(=O)c1ccc(Nc2ncc3c(n2)N(CC2CC2(F)F)CC(C)(C)C(=O)N3C)c(OC)c1` (stereo not shown) [Compound I-169, 4-(9-((2,2-difluorocyclopropyl)methyl)-6,7,8,9-tetrahydro-5,7,7-trimethyl-6-oxo-5H-pyrimido[4,5-b][1,4]diazepin-2-ylamino)-3-methoxy-N-methylbenzamide] belongs below 10 nM; to `CNC(=O)c1ccc(Nc2ncc3c(n2)N(C2CC(F)(F)C2)CC(C)(C)C(=O)N3C)c(OC)c1` [Compound I-170, 4-(9-(3,3-difluorocyclobutyl)-6,7,8,9-tetrahydro-5,7,7-trimethyl-6-oxo-5H-pyrimido[4,5-b][1,4]diazepin-2-ylamino)-3-methoxy-N-methylbenzamide], below 10 nM. The figure for `COc1cc(C(=O)NC2CCOCC2)ccc1Nc1ncc2c(n1)N(C1CC(F)(F)C1)CC(C)(C)C(=O)N2C` [Compound I-171, 4-(9-(3,3-difluorocyclobutyl)-6,7,8,9-tetrahydro-5,7,7-trimethyl-6-oxo-5H-pyrimido[4,5-b][1,4]diazepin-2-ylamino)-N-(tetrahydro-2H-pyran-4-yl)-3-methoxybenzamide] is below 10 nM. To `COc1cc(C(=O)N[C@H]2CCOC2)ccc1Nc1ncc2c(n1)N(C1CCCC1)CC(C)(C)C(=O)N2C` [Compound I-172, 4-(9-cyclopentyl-6,7,8,9-tetrahydro-5,7,7-trimethyl-6-oxo-5H-pyrimido[4,5-b][1,4]diazepin-2-ylamino)-N—((S)-tetrahydrofuran-3-yl)-3-methoxybenzamide] belongs below 10 nM; to `COc1cc(C(=O)NC2CCCC2)ccc1Nc1ncc2c(n1)N(C1CCCC1)C[C@H](C)C(=O)N2C` [Compound I-173, 4-((S)-9-cyclopentyl-6,7,8,9-tetrahydro-5,7-dimethyl-6-oxo-5H-pyrimido[4,5-b][1,4]diazepin-2-ylamino)-N-cyclopentyl-3-methoxybenzamide], below 10 nM. `COc1cc(C(=O)NC2CCOCC2)ccc1Nc1ncc2c(n1)N(C1CCCC1)C[C@H](C)C(=O)N2C` [Compound I-174, 4-((S)-9-cyclopentyl-6,7,8,9-tetrahydro-5,7-dimethyl-6-oxo-5H-pyrimido[4,5-b][1,4]diazepin-2-ylamino)-N-(tetrahydro-2H-pyran-4-yl)-3-methoxybenzamide]: the Ki was below 10 nM. Take `COc1cc(C(=O)NC2CC2)ccc1Nc1ncc2c(n1)N(C1CCCC1)C[C@H](C)C(=O)N2C` [Compound I-175, 4-((S)-9-cyclopentyl-6,7,8,9-tetrahydro-5,7-dimethyl-6-oxo-5H-pyrimido[4,5-b][1,4]diazepin-2-ylamino)-N-cyclopropyl-3-methoxybenzamide]: the Ki was below 10 nM. The figure for `COc1cc(C(=O)NC2CCCC2)ccc1Nc1ncc2c(n1)N(C1CCCC1)CC1(CC1)C(=O)N2C` [Compound I-176, N-cyclopentyl-4-(9′-cyclopentyl-5′-methyl-6′-oxo-5′,6′,8′,9′-tetrahydrospiro[cyclopropane-1,7′-pyrimido[4,5-b][1,4]diazepine]-2′-ylamino)-3-methoxybenzamide] is below 10 nM.
